From ChEMBL document CHEMBL2177089, “Novel tetrahydropyrido[1,2-a]isoindolone derivatives (valmerins): potent cyclin-dependent kinase/glycogen synthase kinase 3 inhibitors with antiproliferative activities and antitumor effects in human tumor xenografts” (J Med Chem, 2012)
The source made the active and inactive calls. The calls are words filed in the database; no cut-off is given here.

What was measured:
[1] = test system: HCT-116; assay: Induction of apoptosis in human HCT116 cells assessed as activation of caspase-3 at 0.6 uM after 24 hrs; assay type: functional, cell-based
[2] = test system: Mus musculus; assay: Toxicity in NMRI mouse assessed as weight loss at 1 to 10 mg/kg, ip qd for 2 weeks; assay type: organism-based; parameters: dose 1-10 mg/kg, route intraperitoneal; details: in vivo, 336 h
[3] = test system: HCT-116; assay: Antitumor activity against human HCT116 cells xenografted in nude NMRI mouse assessed as tumor reduction at 10 mg/kg, ip administered 3 times in a week for 4 weeks; assay type: functional; parameters: scale not given: the % may be the effect or the level left; details: route intraperitoneal
[4] = test system: Mus musculus; assay: Toxicity in NMRI mouse assessed as macroscopic examination of organs at 1 to 10 mg/kg, ip qd for 2 weeks; assay type: organism-based; parameters: dose 1-10 mg/kg, route intraperitoneal; details: in vivo, 336 h
[5] = test system: HCT-116; assay: Cell cycle arrest in human HCT116 cells assessed as accumulation at G1 phase at 0.6 uM after 24 hrs; assay type: functional, cell-based
[6] = test system: NCI-H727; assay: Cell cycle arrest in human NCI-H727 cells assessed as accumulation at G1 phase at 0.6 uM after 24 hrs; assay type: functional, cell-based
[7] = test system: Huh-7; assay: Cell cycle arrest in human HuH7 cells assessed as accumulation at G1 phase at 0.6 uM after 24 hrs; assay type: functional, cell-based
[8] = test system: HCT-116; assay: Antitumor activity against human HCT116 cells xenografted in nude NMRI mouse assessed as tumor reduction at 10 mg/kg, ip administered 3 times in a week for 4 weeks by whole-body bioluminescent imaging; assay type: functional; parameters: scale not given: the % may be the effect or the level left; details: route intraperitoneal
[9] = test system: MDA-MB-231; assay: Cell cycle arrest in human MDA-MB-231 cells assessed as accumulation at G1 phase at 0.6 uM after 24 hrs; assay type: functional, cell-based
[10] = test system: Mus musculus; assay: Toxicity in NMRI mouse assessed as food consumption at 1 to 10 mg/kg, ip qd for 2 weeks; assay type: organism-based; parameters: dose 1-10 mg/kg, route intraperitoneal; details: in vivo, 336 h
[11] = test system: Mus musculus; assay: Toxicity in NMRI mouse assessed as blood formulation at 1 to 10 mg/kg, ip qd for 2 weeks; assay type: organism-based; parameters: dose 1-10 mg/kg, route intraperitoneal; details: in vivo, 336 h
[12] = test system: Mus musculus; assay: Toxicity in NMRI mouse assessed as mortality at 1 to 10 mg/kg, ip qd for 2 weeks; assay type: organism-based; parameters: dose 1-10 mg/kg, route intraperitoneal; details: in vivo, 336 h
[13] = biological target: Cyclin-dependent kinase 1 (Homo sapiens, UniProt P06493); assay: Inhibition of CDK1
Cyclin-dependent kinase 1, sequence (P06493 whole entry): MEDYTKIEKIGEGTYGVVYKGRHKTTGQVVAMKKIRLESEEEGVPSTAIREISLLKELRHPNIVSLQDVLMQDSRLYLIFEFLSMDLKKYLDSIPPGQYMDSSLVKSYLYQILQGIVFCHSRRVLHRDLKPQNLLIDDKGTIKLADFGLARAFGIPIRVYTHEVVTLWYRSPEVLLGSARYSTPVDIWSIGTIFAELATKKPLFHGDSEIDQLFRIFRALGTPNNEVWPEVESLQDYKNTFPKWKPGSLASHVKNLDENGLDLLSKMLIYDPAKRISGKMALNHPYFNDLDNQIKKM

[14] = test system: Caco-2; assay: Cell cycle arrest in human Caco2 cells assessed as accumulation at G1 phase at 0.6 uM after 24 hrs; assay type: functional, cell-based
[15] = test system: PC-3; assay: Cell cycle arrest in human PC3 cells assessed as accumulation at G1 phase at 0.6 uM after 24 hrs; assay type: functional, cell-based
[16] = biological target: Glycogen synthase kinase-3 (Sus scrofa, UniProt B2LUN4+I6LNT8); assay: Inhibition of porcine brain GSK-3alpha/beta using YRRAAVPPSPSLSRHSSPHQpSEDEEE as substrate and [gamma-33P]-ATP after 30 mins by scintillation counting
[17] = test system: PC-3; assay: cells; details: Homo sapiens, PC-3, 48 h
Description: Cytotoxicity against human PC3 cells after 48 hrs

[18] = test system: Huh-7; assay: cells; details: Homo sapiens, Huh-7, 48 h
Description: Cytotoxicity against human HuH7 cells after 48 hrs

[19] = test system: NCI-H727; assay: cells; details: Homo sapiens, NCI-H727, 48 h
Description: Cytotoxicity against human NCI-H727 cells after 48 hrs

[20] = test system: Caco-2; assay: cells; details: Homo sapiens, Caco-2, 48 h
Description: Cytotoxicity against human Caco2 cells after 48 hrs

[21] = test system: HCT-116; assay: cells; details: Homo sapiens, HCT-116, 48 h
Description: Cytotoxicity against human HCT116 cells after 48 hrs

[22] = Cytotoxicity against human skin fibroblasts cells after 48 hrs; details: Fibroblast
[23] = test system: MDA-MB-231; assay: cells; details: Homo sapiens, MDA-MB-231, 48 h
Description: Cytotoxicity against human MDA-MB-231 cells after 48 hrs

[24] = biological target: Cyclin-dependent kinase 5/CDK5 activator 1 (Homo sapiens, UniProt Q00535); assay: Inhibition of human recombinant CDK5/p25 using histone H1 as substrate and [gamma-33P]-ATP after 30 mins by scintillation counting; assay type: protein-complex assay
Cyclin-dependent kinase 5/CDK5 activator 1, sequence (Q00535 whole entry, the tested form may be a part): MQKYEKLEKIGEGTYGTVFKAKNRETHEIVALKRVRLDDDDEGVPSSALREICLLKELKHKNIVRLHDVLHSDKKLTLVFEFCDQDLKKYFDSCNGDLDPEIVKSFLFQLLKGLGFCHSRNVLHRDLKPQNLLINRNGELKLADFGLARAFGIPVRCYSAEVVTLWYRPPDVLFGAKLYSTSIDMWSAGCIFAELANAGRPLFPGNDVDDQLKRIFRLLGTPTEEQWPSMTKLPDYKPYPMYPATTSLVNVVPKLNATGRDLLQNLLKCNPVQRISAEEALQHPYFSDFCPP
Cyclin-dependent kinase 5/CDK5 activator 1, sequence (Q15078 whole entry, further chain, the tested form may be a part): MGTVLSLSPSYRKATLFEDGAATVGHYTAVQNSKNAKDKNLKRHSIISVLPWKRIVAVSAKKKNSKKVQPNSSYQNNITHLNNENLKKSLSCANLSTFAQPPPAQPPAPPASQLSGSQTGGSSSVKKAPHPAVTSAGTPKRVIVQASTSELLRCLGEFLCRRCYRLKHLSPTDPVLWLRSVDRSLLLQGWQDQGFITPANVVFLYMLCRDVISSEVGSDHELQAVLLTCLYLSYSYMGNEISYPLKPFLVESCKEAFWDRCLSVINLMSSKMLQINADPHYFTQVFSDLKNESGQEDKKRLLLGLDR

[25] = biological target: Dual specificity tyrosine-phosphorylation-regulated kinase 1A (Homo sapiens, UniProt Q13627); assay: Inhibition of human recombinant GST-fused DYRK1A expressed in Escherichia coli using KKISGRLSPIMTEQ as substrate and [gamma-33P]-ATP after 30 mins by scintillation counting
[26] = Inhibition of porcine brain CK1delta/epsilon using RRKHAAIGpSAYSITA as substrate and [gamma-33P]-ATP after 30 mins by scintillation counting; parameters: species or system Sus scrofa

O=C(Nc1ccccn1)Nc1cccc2c1C1CCCCN1C2=O (stereo unspecified)
Activity [1]: Active | Activity [2]: Non-toxic | Activity [3]: 45.3% | Activity [4]: Non-toxic | Activity [5]: Active | Activity [6]: Active | Activity [7]: Active | Activity [8]: 51% | Activity [9]: Active | Activity [10]: Non-toxic | Activity [11]: Non-toxic | Activity [12]: Non-toxic | IC50 [13]: 0.075 µM | Activity [14]: Active | Activity [15]: Active

O=C(Nc1ncccn1)Nc1cccc2c1C1CCCCN1C2=O (stereo unspecified)
IC50 [16]: 0.75 µM

O=C(Nc1cccc(F)n1)Nc1cccc2c1C1CCCCN1C2=O (stereo unspecified)
IC50 [17]: 0.2 µM | IC50 [18]: 0.12 µM | IC50 [19]: 0.5 µM | IC50 [16]: 0.026 µM | IC50 [20]: 0.15 µM | IC50 [21]: 0.09 µM | IC50 [22]: 0.4 µM | IC50 [23]: 0.09 µM | IC50 [24]: 0.09 µM

O=C(Nc1ccccc1)Nc1cccc2c1C1CCCCN1C2=O (stereo unspecified)
IC50 [16]: > 10 µM | IC50 [25]: > 10 µM | IC50 [24]: > 10 µM

O=C(Nc1ccncn1)Nc1cccc2c1C1CCCCN1C2=O (stereo unspecified)
IC50 [16]: 0.38 µM | IC50 [25]: > 10 µM

Cn1ccc(NC(=O)Nc2cccc3c2C2CCCCN2C3=O)n1 (stereo unspecified)
IC50 [16]: 0.31 µM

O=C(Nc1cccc(N2CCCCC2)n1)Nc1cccc2c1C1CCCCN1C2=O (stereo unspecified)
IC50 [16]: 0.36 µM | IC50 [25]: > 10 µM | IC50 [26]: > 10 µM | IC50 [24]: > 10 µM

O=C(Nc1cccc2c1C1CCCCN1C2=O)Nc1ncccc1O (stereo unspecified)
IC50 [17]: 0.4 µM | IC50 [18]: 0.5 µM | IC50 [19]: 0.8 µM | IC50 [16]: 0.051 µM | IC50 [20]: 6 µM | IC50 [25]: 1.8 µM | IC50 [21]: 1 µM | IC50 [22]: 3 µM | IC50 [26]: 1.5 µM | IC50 [23]: 2 µM | IC50 [24]: 0.037 µM

O=C(Nc1cc(-c2ccccc2)on1)Nc1cccc2c1C1CCCCN1C2=O (stereo unspecified)
IC50 [16]: 0.27 µM

O=C(Nc1cccc2c1C1CCCCN1C2=O)Nc1ncc(F)cc1F (stereo unspecified)
IC50 [16]: 0.2 µM | IC50 [25]: > 10 µM | IC50 [26]: > 10 µM | IC50 [24]: 0.26 µM

O=C(Nc1cccc(Br)n1)Nc1cccc2c1C1CCCCN1C2=O (stereo unspecified)
IC50 [17]: > 25 µM | IC50 [18]: > 25 µM | IC50 [19]: > 25 µM | IC50 [16]: 0.043 µM | IC50 [20]: > 25 µM | IC50 [21]: > 25 µM | IC50 [22]: > 25 µM | IC50 [23]: > 25 µM

O=C(Nc1cc2ccccc2cn1)Nc1cccc2c1C1CCCCN1C2=O (stereo unspecified)
IC50 [17]: 2 µM | IC50 [18]: 2 µM | IC50 [19]: 3 µM | IC50 [16]: 0.17 µM | IC50 [20]: 1 µM | IC50 [25]: > 10 µM | IC50 [21]: 1 µM | IC50 [22]: 4 µM | IC50 [23]: 3 µM | IC50 [24]: 0.068 µM

COc1cccnc1NC(=O)Nc1cccc2c1C1CCCCN1C2=O (stereo unspecified)
IC50 [16]: 1.3 µM | IC50 [25]: 8.1 µM | IC50 [26]: 2.6 µM | IC50 [24]: 0.59 µM

O=C(Nc1ccc2cccc(O)c2n1)Nc1cccc2c1C1CCCCN1C2=O (stereo unspecified)
IC50 [16]: 0.15 µM | IC50 [25]: > 10 µM | IC50 [24]: 0.7 µM
